Results from a compilation of properties of binary mixtures.
Values belong to the compound of their own block, whether it stands above or below them.

Test: xn = mol fraction of the nth substance listed
[1] = 298.15 K, 101.3 kPa, x1 = 0.333
[2] = 303.15 K, 101.3 kPa, x1 = 0.333
[3] = 308.15 K, 101.3 kPa, x1 = 0.333
[4] = 313.15 K, 101.3 kPa, x1 = 0.333

Compound: CCn1cc[nH+]c1.O=S(=O)([N-]S(=O)(=O)C(F)(F)F)C(F)(F)F + O
viscosity (297.55 K, 101 kPa, x1 = 0.359): 11.2 mPa·s
viscosity (297.55 K, 101 kPa, x1 = 0.667): 24.1 mPa·s
viscosity (297.55 K, 101 kPa, x1 = 0.8): 32.7 mPa·s
viscosity (297.55 K, 101 kPa, x1 = 0.941): 50.8 mPa·s
viscosity (297.55 K, 101 kPa, x1 = 1): 57.1 mPa·s

Compound: CCCCCC[n+]1ccn(C)c1.[Br-] + O
viscosity (298.15 K, 100 kPa, x2 = 0.9487): 2.88 mPa·s

viscosity [1]: 93.4 mPa·s
viscosity [2]: 72.4 mPa·s
viscosity [3]: 56.9 mPa·s
viscosity [4]: 45.3 mPa·s
viscosity (318.15 K, 101.3 kPa, x1 = 0.333): 36.6 mPa·s
Compound: CCCC[P+](CCCC)(CCCC)CCCC.[Br-] + OCCO

Compound: CCCC[n+]1ccn(C)c1.F[P-](F)(F)(F)(F)F + CCCC[n+]1ccn(C)c1.O=S(=O)([N-]S(=O)(=O)C(F)(F)F)C(F)(F)F
viscosity (313.15 K, 100 kPa, x1 = 0.25): 36.48 mPa·s
viscosity (313.15 K, 100 kPa, x1 = 0.75): 73.2 mPa·s

Compound: C=CC[n+]1ccn(C)c1.O=S(=O)([N-]S(=O)(=O)C(F)(F)F)C(F)(F)F + CCCO
viscosity (298.15 K, 100 kPa, x1 = 0.1): 3.31 mPa·s
viscosity (298.15 K, 100 kPa, x1 = 0.3): 6.61 mPa·s
viscosity (298.15 K, 100 kPa, x1 = 0.4): 8.51 mPa·s
viscosity (298.15 K, 100 kPa, x1 = 0.6): 13.42 mPa·s
viscosity (298.15 K, 100 kPa, x1 = 1): 34.3 mPa·s

speed of sound (293.15 K, 101.3 kPa, x1 = 0.333): 1915.5 m/s
speed of sound [1]: 1903.4 m/s
speed of sound [2]: 1891.8 m/s
speed of sound [3]: 1879.3 m/s
speed of sound [4]: 1869.1 m/s
Compound: CC[N+]1(C)CCCC1.[Br-] + OCCCCCCO

electrical conductivity (288.15 K, 100 kPa, x1 = 1): 0.0217 S/m
electrical conductivity (318.15 K, 100 kPa, x1 = 1): 0.0402 S/m
Compound: O + CCCC[n+]1ccn(C)c1.F[B-](F)(F)F

Compound: CCn1cc[n+](C)c1.O=S(=O)([O-])C(F)(F)C(F)(F)C(F)(F)C(F)(F)F + O
viscosity (298.15 K, 101.3 kPa, x1 = 0.0001): 1.038 mPa·s
viscosity (298.15 K, 101.3 kPa, x1 = 0.0005): 1.111 mPa·s
viscosity (298.15 K, 101.3 kPa, x1 = 0.0011): 1.091 mPa·s
viscosity (298.15 K, 101.3 kPa, x1 = 0.0018): 1.164 mPa·s
viscosity (298.15 K, 101.3 kPa, x1 = 0.0049): 1.367 mPa·s
viscosity (298.15 K, 101.3 kPa, x1 = 0.0109): 1.96 mPa·s
viscosity (298.15 K, 101.3 kPa, x2 = 0.9783): 3.03 mPa·s

Compound: O=C(O)CC(O)(CC(=O)O)C(=O)O + C[N+](C)(C)Cc1ccccc1.[Cl-]
electrical conductivity (303.11 K, 101 kPa, x2 = 0.5): 0.0002 S/m
electrical conductivity (308.2 K, 101 kPa, x2 = 0.5): 0.0005 S/m
electrical conductivity (313.21 K, 101 kPa, x2 = 0.5): 0.0011 S/m
viscosity (317.97 K, 101 kPa, x2 = 0.5): 152000 mPa·s
electrical conductivity (318.06 K, 101 kPa, x2 = 0.5): 0.0019 S/m
viscosity (323.1 K, 101 kPa, x2 = 0.5): 89000 mPa·s
electrical conductivity (323.14 K, 101 kPa, x2 = 0.5): 0.0032 S/m
viscosity (332.88 K, 101 kPa, x2 = 0.5): 28100 mPa·s
electrical conductivity (333.12 K, 101 kPa, x2 = 0.5): 0.0095 S/m

Compound: CCCC[n+]1ccn(C)c1.O=S(=O)([N-]S(=O)(=O)C(F)(F)F)C(F)(F)F + CCCCn1cc[n+](C)c1.O=S(=O)([N-]S(=O)(=O)C(F)(F)F)c1ccc[cH-]1.[Fe+2].c1cc[cH-]c1
viscosity (298.15 K, 100 kPa, x1 = 1): 43.8 mPa·s

Compound: C[N+](C)(C)CCCl.[Cl-] + OCC(O)CO
viscosity (318.15 K, 100 kPa, x1 = 0.333): 161 mPa·s

Compound: CCCC[n+]1ccn(C)c1.F[P-](F)(F)(F)(F)F + CC(C)=O
electrical conductivity (296.15 K, 101 kPa, x2 = 0.3522): 0.84 S/m
electrical conductivity (296.15 K, 101 kPa, x2 = 0.8801): 3.91 S/m
electrical conductivity (296.15 K, 101 kPa, x2 = 0.9514): 2.99 S/m
electrical conductivity (296.15 K, 101 kPa, x2 = 0.9778): 1.73 S/m

speed of sound (313.15 K, 100 kPa, x1 = 0.3333): 1870.1 m/s
Compound: CC[N+]1(C)CCCC1.[Br-] + OCC(O)CO

Compound: CCCCCCCCn1cc[n+](C)c1.O=S(=O)([N-]S(=O)(=O)C(F)(F)F)C(F)(F)F + O
viscosity (293.15 K, 101 kPa, x2 = 0.205): 75 mPa·s
electrical conductivity (295.15 K, 101 kPa, x2 = 0.205): 0.21 S/m

viscosity (298.15 K, 100 kPa, x1 = 0.0172): 1.2 mPa·s
viscosity (298.15 K, 100 kPa, x1 = 0.0301): 1.28 mPa·s
viscosity (298.15 K, 100 kPa, x1 = 0.0456): 1.76 mPa·s
viscosity (298.15 K, 100 kPa, x1 = 0.0985): 6.58 mPa·s
Compound: CC(O)C(=O)[O-].CN(C)CCOCC[NH+](C)C + O

viscosity (293.15 K, 100 kPa, x1 = 0.5): 153.7 mPa·s
Compound: Oc1cccnc1 + CCCC[n+]1ccn(C)c1.[Cl-]

viscosity (298.15 K, 101 kPa, x2 = 0): 573 mPa·s
viscosity (298.15 K, 101 kPa, x2 = 0.5): 82.1 mPa·s
Compound: CCCC[n+]1ccn(C)c1C.F[B-](F)(F)F + OCCOCCOCCOCCO

Compound: CC[n+]1ccn(C)c1.[Cl-] + OCC(O)CO
viscosity (298.15 K, 101 kPa, x1 = 0.667): 345 mPa·s
viscosity (303.15 K, 101 kPa, x1 = 0.667): 243 mPa·s
viscosity (323.15 K, 101 kPa, x1 = 0.667): 75.6 mPa·s
viscosity (333.15 K, 101 kPa, x1 = 0.667): 47.2 mPa·s

Compound: CCCCCC[n+]1ccn(C)c1.F[P-](F)(F)(F)(F)F + O
viscosity (298 K, 101 kPa, x2 = 0.1334): 452 mPa·s

Compound: C[N+](C)(C)CCO.O=S(=O)([N-]S(=O)(=O)C(F)(F)F)C(F)(F)F + OCCOCCOCCOCCO
viscosity (298.15 K, 101 kPa, x2 = 0.5): 87 mPa·s

electrical conductivity (298 K, 101 kPa, x1 = 0.0002): 0.475 S/m
electrical conductivity (298 K, 101 kPa, x1 = 0.0004): 0.658 S/m
electrical conductivity (298 K, 101 kPa, x1 = 0.001): 0.921 S/m
electrical conductivity (298 K, 101 kPa, x1 = 0.0016): 1.45 S/m
electrical conductivity (298 K, 101 kPa, x1 = 0.004): 2.04 S/m
electrical conductivity (298 K, 101 kPa, x1 = 0.006): 2.14 S/m
electrical conductivity (298 K, 101 kPa, x1 = 0.008): 2.28 S/m
electrical conductivity (298 K, 101 kPa, x1 = 0.01): 2.32 S/m
Compound: CC[N+](CC)(CC)CCCS(=O)(=O)O.F[B-](F)(F)F + O

Compound: c1ccccc1 + CCCCCCCCn1cc[n+](C)c1.O=S(=O)([N-]S(=O)(=O)C(F)(F)F)C(F)(F)F
viscosity (293 K, 101 kPa, x2 = 0): 0.641 mPa·s

Compound: CCCC[N+]1(C)CCCCC1.O=S(=O)([N-]S(=O)(=O)C(F)(F)F)C(F)(F)F + OCCOCCOCCOCCO
viscosity (298.15 K, 101 kPa, x2 = 0): 178.5 mPa·s
viscosity (298.15 K, 101 kPa, x2 = 0.5): 79.5 mPa·s

Compound: CCCCCCCCCCCCOS(=O)(=O)[O-].CCCC[n+]1ccn(C)c1 + O
viscosity (303 K, 101 kPa, x1 = 0.011): 300 mPa·s
viscosity (303 K, 101 kPa, x1 = 0.0288): 113000 mPa·s
viscosity (303 K, 101 kPa, x1 = 0.0626): 1070000 mPa·s
viscosity (303 K, 101 kPa, x1 = 0.1512): 4200000 mPa·s
viscosity (303 K, 101 kPa, x1 = 1): 1.32e+07 mPa·s
viscosity (333 K, 101 kPa, x1 = 0.011): 25000 mPa·s
viscosity (333 K, 101 kPa, x1 = 0.0288): 335000 mPa·s
viscosity (333 K, 101 kPa, x1 = 0.1512): 1780000 mPa·s

Compound: ClCCl + CCCC[n+]1ccn(C)c1.O=S(=O)([N-]S(=O)(=O)C(F)(F)F)C(F)(F)F
electrical conductivity (296.35 K, 100 kPa, x2 = 0.0271): 0.64 S/m
electrical conductivity (296.35 K, 100 kPa, x2 = 0.039): 0.79 S/m
electrical conductivity (296.35 K, 100 kPa, x2 = 0.0623): 1.1 S/m
electrical conductivity (296.35 K, 100 kPa, x2 = 0.1129): 1.32 S/m
electrical conductivity (296.35 K, 100 kPa, x2 = 0.2144): 1.58 S/m

Compound: CCCCC(CC)COC(=O)CC(C(=O)OCC(CC)CCCC)S(=O)(=O)[O-].CCCC[n+]1ccn(C)c1 (stereo not drawn) + O
viscosity (313.15 K, 99.6 kPa, x1 = 0.8695): 692 mPa·s
viscosity (323.15 K, 99.6 kPa, x1 = 0.8695): 363 mPa·s
viscosity (333.15 K, 99.6 kPa, x1 = 0.8695): 207 mPa·s

Compound: CCCC[n+]1ccn(C)c1.[Cl-] + OCC(O)CO
speed of sound (298.15 K, 101 kPa, x2 = 0.333): 1838.8 m/s
speed of sound (303.15 K, 101 kPa, x2 = 0.333): 1826.5 m/s
speed of sound (313.15 K, 101 kPa, x2 = 0.333): 1802.4 m/s

Compound: CC[n+]1ccn(C)c1.[Cl-] + CC#N
viscosity (373 K, 100 kPa, x2 = 0): 36 mPa·s
viscosity (373 K, 100 kPa, x2 = 0.158): 19 mPa·s
viscosity (373 K, 100 kPa, x2 = 0.472): 7 mPa·s
viscosity (373 K, 100 kPa, x2 = 0.781): 3 mPa·s

speed of sound (298.15 K, 100 kPa, x1 = 0.002): 1341.9 m/s
speed of sound (298.15 K, 100 kPa, x1 = 0.0052): 1400.4 m/s
speed of sound (298.15 K, 100 kPa, x1 = 0.0073): 1474.1 m/s
Compound: CCCC[P+](CCCC)(CCCC)CCCC.F[B-](F)(F)F + C1COCO1

Compound: CCCC[NH3+].O=[N+]([O-])[O-] + O
viscosity (303.15 K, 101 kPa, x2 = 0.3495): 22.35 mPa·s
viscosity (308.15 K, 101 kPa, x2 = 0.3495): 19.25 mPa·s
viscosity (313.15 K, 101 kPa, x2 = 0.3495): 16.75 mPa·s
